Values belong to the molecule of their own block, whether it stands above or below them.
Legend:
EGFR [1] = target: T1, EGFR (Homo sapiens, UniProt P00533); assay: Phosphorylation of EGFR Tyr residues in NE91 cells (Western blot); format: cell-based; set-up: expressed in transfected cells; host or cells: NE91 mouse fibroblasts; conditions: FIG. 3
Method: NE91 cells (mouse fibroblasts over-expressing wild type human type EGFR) were starved overnight, incubated with an exemplary mutation mimicking compound (designated EEO3, see below; 0.1 μM; lanes 2, 6 of FIG. 2), Tarceva® (0.1 μM; lanes 3, 7 of FIG. 2), or both (lanes 4, 8 of FIG. 2) for one hour, and harvested (lanes 1-4 of FIG. 2), or induced with EGF (50 ng/mL) for 15 minutes and harvested. Equal amounts of total protein were loaded on 10% SDS-PAGE gel, separated, transferred to a PVDF membrane, and probed with pY99, pERK antibodies (Santa Cruz Biotechnology), or antibodies against specific phosphotyrosines of EGFR (pY845, pY1068, pY992) or AKT phosphor-serine (473; Cell Signaling Technology). Total EGFR and γ-tubulin levels were determined as controls using the 1005 (Santa Cruz Biotechnology) and GTU88 (Sigma) Abs, respectively.
To estimate the inhibitory activity of Compound C318 on EGFR signaling, its effect on the phosphorylation of specific Tyr residues of EGFR kinase was tested (see FIG. 3). The methods used were the same as described in Example 3.

EGFR (L858R, T790M) = target: T2, EGFR (L858R, T790M) (Homo sapiens, UniProt P00533, L858R/T790M); assay: Kinase assay with Tarceva-resistant EGFR mutant, HotSpot technology; format: biochemical
T2 construct: purchased Reaction Biology Corp. (Malvern, Pa.)
Method: (§1) In an additional set of tests, EGFR assays were done to determine IC50 values using HotSpot^SM technology with the peptide substrate poly[Glu:Tyr] (4:1, 0.2 mg/ml). These tests were conducted by Reaction Biology Corp. (Malvern, Pa.; http://www.reactionbiology.com). Kinase reactions were carried out in 20 mmol/L HEPES (pH 7.5), 10 mmol/L MgCl2, 1 mmol/L EGTA, 0.02% Brij 35, 0.02 mg/mL bovine serum albumin, 2 mmol/L DTT, and 1% DMSO. The final concentration of ATP was 10 μmol/L. Purified recombinant kinases were incubated with serial 3-fold dilutions of test compounds starting at a final concentration of 1 μmol/L. ATP concentration was 10 μmol/L. Dose response curves were fitted using Prism 5.0 from Graph-Pad Software.
All these inhibitors were also tested by the same kinase assay using the Tarceva®-resistant EGFR kinase mutant, EGFR (L858R, T790M).

EGFR [2] = target: T1, EGFR; assay: EGFR kinase assay, HotSpot technology; format: biochemical; set-up: purchased Reaction Biology Corp. (Malvern, Pa.); conditions: ATP 10 μmol/L, substrate poly[Glu:Tyr]
Method: as §1

[3] = tested on: EGFR-over-expressing NE91 cells; assay: Anchorage independent growth (soft agar colony formation) of NE91 cells; format: cell-based, mouse; conditions: 0.1 μM, colonies counted after 3 weeks, FIG. 4(D)
Method: To evaluate the inhibitory effect of C318 on cell proliferation in vitro, the compound was tested for inhibition of the anchorage independent growth of EGFR-over-expressing NE91 cells (FIG. 4). Anchorage independent growth was determined by assessing the colony-forming efficiency of cells suspended in soft agar. Cells (5×10^3) were suspended in a 1 ml top layer (0.375% agarose 10% FBS/DMEM) in 6-cm culture dishes containing a 3 ml cell-free feeder layer consisting of 0.5% agarose in DMEM supplemented with 10% FBS and 20 mM Hepes (pH 7.5). Culture dishes were fed by 0.7 ml 10% FBS/DMEM containing 0.1 uM of C318 or Tarceva® once every 5 days. Colonies were visualized and counted after 3 weeks after staining with p-iodonitrotetrazolium violet (1 mg/ml).

T1 sequence (P00533 25-1210): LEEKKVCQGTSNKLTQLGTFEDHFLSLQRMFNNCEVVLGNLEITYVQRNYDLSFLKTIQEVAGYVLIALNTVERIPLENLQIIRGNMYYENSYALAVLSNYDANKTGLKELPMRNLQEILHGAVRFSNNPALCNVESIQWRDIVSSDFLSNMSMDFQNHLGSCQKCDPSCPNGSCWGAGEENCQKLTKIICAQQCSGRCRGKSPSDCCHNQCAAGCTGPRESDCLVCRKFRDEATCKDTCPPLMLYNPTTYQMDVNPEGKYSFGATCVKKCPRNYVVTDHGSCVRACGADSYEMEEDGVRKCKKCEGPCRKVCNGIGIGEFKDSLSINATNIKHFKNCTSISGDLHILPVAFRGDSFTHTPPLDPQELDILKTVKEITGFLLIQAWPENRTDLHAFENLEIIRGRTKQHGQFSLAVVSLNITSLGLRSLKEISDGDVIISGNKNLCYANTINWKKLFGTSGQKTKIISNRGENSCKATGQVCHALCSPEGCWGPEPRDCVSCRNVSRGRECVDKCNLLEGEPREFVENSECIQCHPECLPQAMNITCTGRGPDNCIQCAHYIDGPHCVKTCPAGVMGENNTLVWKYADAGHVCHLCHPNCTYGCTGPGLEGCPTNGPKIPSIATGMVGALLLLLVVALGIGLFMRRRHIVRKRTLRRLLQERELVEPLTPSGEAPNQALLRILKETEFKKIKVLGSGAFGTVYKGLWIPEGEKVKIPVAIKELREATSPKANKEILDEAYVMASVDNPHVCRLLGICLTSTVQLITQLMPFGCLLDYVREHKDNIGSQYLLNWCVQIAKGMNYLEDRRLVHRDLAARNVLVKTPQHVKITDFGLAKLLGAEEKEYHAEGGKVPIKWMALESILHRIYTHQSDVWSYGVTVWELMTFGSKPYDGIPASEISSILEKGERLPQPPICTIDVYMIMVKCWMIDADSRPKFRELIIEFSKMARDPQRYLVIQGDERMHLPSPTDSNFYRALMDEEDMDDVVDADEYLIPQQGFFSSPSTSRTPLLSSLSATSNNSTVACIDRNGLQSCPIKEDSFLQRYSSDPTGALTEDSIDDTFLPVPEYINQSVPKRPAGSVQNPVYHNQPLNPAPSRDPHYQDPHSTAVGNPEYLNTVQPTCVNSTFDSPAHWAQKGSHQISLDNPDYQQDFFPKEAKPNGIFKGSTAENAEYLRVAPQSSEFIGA
T2 sequence (P00533 25-1210 T790M/L858R): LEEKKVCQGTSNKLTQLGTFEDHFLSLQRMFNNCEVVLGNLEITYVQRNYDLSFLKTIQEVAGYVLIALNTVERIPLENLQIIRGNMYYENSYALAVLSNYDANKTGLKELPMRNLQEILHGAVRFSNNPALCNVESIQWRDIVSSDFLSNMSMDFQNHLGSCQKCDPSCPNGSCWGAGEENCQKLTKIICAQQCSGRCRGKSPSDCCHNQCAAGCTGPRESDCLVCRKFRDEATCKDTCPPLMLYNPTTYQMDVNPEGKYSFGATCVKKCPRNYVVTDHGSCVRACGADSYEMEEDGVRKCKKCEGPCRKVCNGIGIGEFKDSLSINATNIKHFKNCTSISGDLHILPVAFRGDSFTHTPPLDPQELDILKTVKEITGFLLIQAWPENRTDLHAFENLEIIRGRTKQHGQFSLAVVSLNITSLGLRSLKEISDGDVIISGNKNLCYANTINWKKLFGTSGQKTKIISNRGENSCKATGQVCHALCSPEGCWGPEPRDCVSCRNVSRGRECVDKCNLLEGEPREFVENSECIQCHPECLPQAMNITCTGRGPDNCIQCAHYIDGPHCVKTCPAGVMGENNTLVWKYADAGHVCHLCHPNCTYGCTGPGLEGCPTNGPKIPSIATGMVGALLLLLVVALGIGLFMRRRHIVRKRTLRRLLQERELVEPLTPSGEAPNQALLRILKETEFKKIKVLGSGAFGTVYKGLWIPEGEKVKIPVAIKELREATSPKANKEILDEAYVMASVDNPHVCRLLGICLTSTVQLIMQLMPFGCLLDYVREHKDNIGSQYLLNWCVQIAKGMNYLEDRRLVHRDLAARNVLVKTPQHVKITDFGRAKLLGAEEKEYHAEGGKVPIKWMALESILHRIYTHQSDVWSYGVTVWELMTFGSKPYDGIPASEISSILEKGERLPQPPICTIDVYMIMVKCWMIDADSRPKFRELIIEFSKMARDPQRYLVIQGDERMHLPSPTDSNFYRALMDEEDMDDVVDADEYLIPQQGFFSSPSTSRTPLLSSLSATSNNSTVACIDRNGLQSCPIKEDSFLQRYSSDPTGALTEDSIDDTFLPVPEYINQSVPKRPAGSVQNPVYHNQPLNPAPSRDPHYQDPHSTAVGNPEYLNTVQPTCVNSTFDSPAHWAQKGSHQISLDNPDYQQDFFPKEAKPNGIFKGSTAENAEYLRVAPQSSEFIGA

inhibitory effects on EGFR Tyr phosphorylation relative to C-318 (EGFR [1]): not as strong as that of C-318
Structure (SMILES): O=C(CSCCO)Nc1ccc2ncnc(Nc3cc(Cl)c(Cl)cc3F)c2c1 [Compound C300]

inhibitory effects on EGFR Tyr phosphorylation relative to C-318 (EGFR [1]): not as strong as that of C-318
Structure (SMILES): O=C(CSc1nnc(SCC2CC2)s1)Nc1ccc2ncnc(Nc3cc(Cl)c(Cl)cc3F)c2c1 [Compound C318F]

activity to inhibit EGFR (L858R, T790M) kinase, comparison (EGFR (L858R, T790M); FIG. 7): better activity than C318
inhibition at 0.1 µM (EGFR (L858R, T790M); at 100 nM, ATP 10 μmol/L): ~20%
IC50 (EGFR [2]): 0.5 to 1 nM
Structure (SMILES): O=C(O)CC(Sc1nn(CC(=O)Nc2ccc3ncnc(Nc4cc(Cl)c(Cl)cc4F)c3c2)c(=S)s1)C(=O)O (stereo not shown) [Compound C318N, 2-([4-[([4-[(4,5-dichloro-2-fluorophenyl)amino]quinazolin-6-yl]carbamoyl)methyl]-5-sulfanylidene-4,5-dihydro-1,3,4-thiadiazol-2-yl]sulfanyl)butanedioic acid]

inhibition of EGFR(L858R, T790M) (EGFR (L858R, T790M); at 100 nM, ATP 10 μmol/L): about the same inhibition as Tarceva®
IC50 (EGFR [2]): 0.5 to 1 nM
inhibition of phosphorylation of Tyr 992 of EGFR (EGFR [1]; compared with Tarceva): but not Tyr 992
inhibition of phosphorylation of Tyr 1068 of EGFR (EGFR [1]; compared with Tarceva): stronger activity than Tarceva®
Structure (SMILES): O=C(O)CC(Sc1nnc(SCC(=O)Nc2ccc3ncnc(Nc4cc(Cl)c(Cl)cc4F)c3c2)s1)C(=O)O (stereo not shown) [Compound C318]
inhibition of anchorage independent growth [3]: more active than Tarceva®

Source: US9321759B2, “Methods and use of bifunctional enzyme-building clamp-shaped molecules” (The Trustees Of The University Of Pennsylvania, priority 2011, dated 2016)
